Biological target: hCereblon(M1-L442)_hDDB1(M1-H1140) (Homo sapiens (Human), UniProt Q96SW2)
Assay: Fluorescence direct binding (tryptophan fluorescence titration)
Settings: 20° C., excitation 280 nm, emission 340 nm, 50 mM Hepes 7.4 200 mM NaCl; read-out: Fluorescence h-Cereblon_DDB1 Mean Kd_EQ
Protocol: Fluorescence Direct Binding Protocol
Determination of the affinities of compounds to protein containing one or more tryptophan is measurable by monitoring the fluorescence emission in direct mode. The measurements, depending on the protein available amounts, were performed either manually in a cuvette on ISS-PCI photon counting spectrofluorometer or automatically in well plates on a fluorescence plate reader device. Fluorescence titrations were performed at 20° C. in the chosen binding assay buffer by using a defined constant protein concentration against ligand concentration variations. Small aliquots of known ligand concentration solubilized in DMSO were added and the fluorescence, excited at 280 nm, was recorded at 340 nm.

hCereblon(M1-L442)_hDDB1(M1-H1140), sequence (Q96SW2 whole entry, looked up): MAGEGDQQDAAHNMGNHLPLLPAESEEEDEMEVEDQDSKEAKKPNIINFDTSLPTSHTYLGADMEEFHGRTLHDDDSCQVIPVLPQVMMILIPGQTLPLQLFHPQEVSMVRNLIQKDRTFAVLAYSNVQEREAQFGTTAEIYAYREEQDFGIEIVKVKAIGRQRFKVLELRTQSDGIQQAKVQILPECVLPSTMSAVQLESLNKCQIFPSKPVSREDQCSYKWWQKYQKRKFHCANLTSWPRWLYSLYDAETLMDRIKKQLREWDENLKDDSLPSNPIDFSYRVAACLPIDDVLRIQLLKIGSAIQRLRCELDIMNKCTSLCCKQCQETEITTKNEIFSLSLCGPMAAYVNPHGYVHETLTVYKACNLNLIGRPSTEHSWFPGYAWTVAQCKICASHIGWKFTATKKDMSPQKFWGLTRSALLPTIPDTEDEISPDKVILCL
hCereblon(M1-L442)_hDDB1(M1-H1140), sequence (Q16531 whole entry partner, looked up): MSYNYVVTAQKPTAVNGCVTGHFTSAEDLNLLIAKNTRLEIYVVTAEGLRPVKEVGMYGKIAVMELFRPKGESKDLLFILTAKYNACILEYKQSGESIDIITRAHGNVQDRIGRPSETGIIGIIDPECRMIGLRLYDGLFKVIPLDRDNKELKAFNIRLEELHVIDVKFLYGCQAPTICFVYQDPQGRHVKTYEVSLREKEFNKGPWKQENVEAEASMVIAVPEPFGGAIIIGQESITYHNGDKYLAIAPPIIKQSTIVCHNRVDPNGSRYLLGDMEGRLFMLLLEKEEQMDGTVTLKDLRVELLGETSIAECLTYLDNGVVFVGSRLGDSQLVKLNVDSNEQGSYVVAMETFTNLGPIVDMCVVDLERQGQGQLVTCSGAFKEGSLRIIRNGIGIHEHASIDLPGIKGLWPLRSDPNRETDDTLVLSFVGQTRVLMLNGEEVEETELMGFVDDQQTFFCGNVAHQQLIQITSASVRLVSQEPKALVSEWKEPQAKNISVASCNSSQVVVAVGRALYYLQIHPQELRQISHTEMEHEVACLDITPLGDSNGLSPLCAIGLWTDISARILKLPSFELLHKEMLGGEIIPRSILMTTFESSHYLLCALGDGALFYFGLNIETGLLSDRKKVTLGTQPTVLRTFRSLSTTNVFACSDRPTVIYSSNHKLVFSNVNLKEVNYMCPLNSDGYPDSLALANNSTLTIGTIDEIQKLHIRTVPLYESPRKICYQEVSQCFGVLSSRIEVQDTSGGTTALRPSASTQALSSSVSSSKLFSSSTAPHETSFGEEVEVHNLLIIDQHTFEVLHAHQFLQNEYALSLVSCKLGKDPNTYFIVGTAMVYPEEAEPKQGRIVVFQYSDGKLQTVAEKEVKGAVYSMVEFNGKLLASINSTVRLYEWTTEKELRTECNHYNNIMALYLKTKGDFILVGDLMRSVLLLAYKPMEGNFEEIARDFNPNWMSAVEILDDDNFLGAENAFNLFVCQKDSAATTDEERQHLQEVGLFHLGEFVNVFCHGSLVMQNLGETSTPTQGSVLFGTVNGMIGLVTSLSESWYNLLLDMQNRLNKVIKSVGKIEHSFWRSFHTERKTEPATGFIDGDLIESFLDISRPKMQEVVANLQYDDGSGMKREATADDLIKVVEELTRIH

SMILES | Kd
O=C1CCC2(CCN(c3nc4cc([N+](=O)[O-])ccc4[nH]3)C2)C(=O)N1 (single isomer, unassigned) [Example 33, 2-(5-nitro-1H-benzo[d]imidazol-2-yl)-2,7-diazaspiro[4.5] decane-6,8-dione] | < 1 nM
O=C1CCC2(CCN(c3nc4cc([N+](=O)[O-])ccc4[nH]3)C2)C(=O)N1 (single isomer, unassigned) [Example 34, 2-(5-nitro-1H-benzo[d]imidazol-2-yl)-2,7-diazaspiro[4.5] decane-6,8-dione] | 5 nM
O=C1CC2(CCN(C(=O)[C@H]3CCCc4ccccc43)CC2)C(=O)N1 (single isomer, unassigned) [Example 77] | 6 nM
O=C1CC2(CCN(C(=O)[C@@H]3CCCc4ccccc43)CC2)C(=O)N1 (single isomer, unassigned) [Example 78] | 4 nM
Cc1sc2c(c1C)C(c1ccc(Cl)cc1)=NC(CC(=O)NCCCCCCCC(=O)Nc1cccc(C(=O)N3CCC4(CCC(=O)NC4=O)C3)c1)c1nnc(C)n1-2 (stereo in doubt) [Example 57, 8-(2-((R)-4-(4-chlorophenyl)-2,3,9-trimethyl-6H-thieno[3,2-f] [1,2,4]triazolo [4,3-a] [1,4]diazepin-6-yl)acetamido)-N-(3-(6,8-dioxo-2,7-diazaspiro[4.5]decane-2-carbonyl)phenyl) octanamide] | 106 nM
O=C1CCC2(CCNC2)C(=O)N1 (stereo not shown) [Example 1, 2,7-diazaspiro [4.5]decane-6,8-dione] | 84 nM
CN1CC2(CCC(=O)NC2=O)CC1=O (stereo not shown) [Example 2, 2-methyl-2,7-diazaspiro[4.5] decane-3,6,8-trione] | 159 nM
COC(=O)c1ccc(N2CCC3(CCC(=O)NC3=O)C2)nc1 (stereo not shown) [Example 6, methyl 6-(6,8-dioxo-2,7-diazaspiro[4.5]decan-2-yl) nicotinate] | < 1 nM
O=C1CCC2(CCN(c3nc4cc([N+](=O)[O-])ccc4[nH]3)C2)C(=O)N1 (stereo not shown) [Example 9, 2-(5-nitro-1H-benzo[d]imidazol-2-yl)-2,7-diazaspiro [4.5]decane-6,8-dione] | 8 nM
O=C1CCC2(CCN(c3nc4ccccc4s3)C2)C(=O)N1 (stereo not shown) [Example 12, 2-(benzo[d]thiazol-2-yl)-2,7-diazaspiro [4.5]decane-6,8-dione] | 1 nM
COC(=O)c1cccc2nc(N3CCC4(CCC(=O)NC4=O)C3)[nH]c12 (stereo not shown) [Example 13, methyl 2-(6,8-dioxo-2,7-diazaspiro[4.5]decan-2-yl)-1H-benzo[d]imidazole-7-carboxylate] | 96 nM
O=C1CCC2(CCN(c3ccc4ccccc4n3)C2)C(=O)N1 (stereo not shown) [Example 15, 2-(quinolin-2-yl)-2,7-diazaspiro[4.5] decane-6,8-dione] | 6 nM
Cn1c(N2CCC3(CCC(=O)NC3=O)C2)nc2ccccc21 (stereo not shown) [Example 19, 2-(1-methyl-1H-benzo[d]imidazol-2-yl)-2,7-diazaspiro[4.5] decane-6,8-dione] | 30 nM
O=C1CCC2(CCN(c3nc4cnccc4s3)C2)C(=O)N1 (stereo not shown) [Example 20, 2-(thiazolo[4,5-c]pyridin-2-yl)-2,7-diazaspiro[4.5] decane-6,8-dione] | 6 nM
COC(=O)c1ccc2nc(N3CCC4(CCC(=O)NC4=O)C3)sc2c1 (stereo not shown) [Example 21, methyl 2-(6,8-dioxo-2,7-diazaspiro [4.5]decan-2-yl)benzo[d]thiazole-6-carboxylate] | 8 nM
COC(=O)c1csc(N2CCC3(CCC(=O)NC3=O)C2)n1 (stereo not shown) [Example 22, methyl 2-(6,8-dioxo-2,7-diazaspiro[4.5]decan-2-yl)thiazole-4-carboxylate] | 44 nM
COC(=O)c1cnc(N2CCC3(CCC(=O)NC3=O)C2)s1 (stereo not shown) [Example 23, methyl 2-(6,8-dioxo-2,7-diazaspiro[4.5]decan-2-yl)thiazole-5-carboxylate] | 8 nM
CC(C)(C)OC(=O)c1ccc(N2CCC3(CCC(=O)NC3=O)C2)nc1 (stereo not shown) [Example 24, tert-butyl 6-(6,8-dioxo-2,7-diazaspiro[4.5]decan-2-yl) nicotinate] | 2 nM
O=C1CCC2(CCN(C(=O)c3cccc4c3CC(=O)N4)C2)C(=O)N1 (stereo not shown) [Example 27, 2-(2-oxoindoline-4-carbonyl)-2,7-diazaspiro[4.5] decane-6,8-dione] | 47 nM
COC(=O)c1ccc(C(=O)N2CCC3(CCC(=O)NC3=O)C2)cc1 (stereo not shown) [Example 28, methyl 4-(6,8-dioxo-2,7-diazaspiro[4.5]decane-2-carbonyl) benzoate] | 13 nM
O=C1CCC2(CCN(C(=O)c3ccc4scnc4c3)C2)C(=O)N1 (stereo not shown) [Example 29, 2-(benzo[d]thiazole-5-carbonyl)-2,7-diazaspiro[4.5] decane-6,8-dione] | < 1 nM
O=C1CCC2(CCN(c3ccc([N+](=O)[O-])cn3)C2)C(=O)N1 (stereo not shown) [Example 30, 2-(5-nitropyridin-2-yl)-2,7-diazaspiro [4.5]decane-6,8-dione] | 1 nM
COC(=O)c1cccc(N2CCC3(CCC(=O)NC3=O)C2)n1 (stereo not shown) [Example 32, methyl 6-(6,8-dioxo-2,7diazaspiro[4.5]decan-2-yl)picolinate] | 1 nM

SMILES | Kd
CC(=O)N1CCc2c(C(=O)N3CCC4(CCC(=O)NC4=O)C3)cccc21 (stereo not shown) [Example 35, 2-(1-acetylindoline-4-carbonyl)-2,7-diazaspiro[4.5] decane-6,8-dione] | < 1 nM
O=C1CCC2(CCN(C(=O)c3ccccc3)C2)C(=O)N1 (stereo not shown) [Example 36, 2-benzoyl-2,7-diazaspiro[4.5] decane-6,8-dione] | < 1 nM
CC(=O)Nc1cccc(C(=O)N2CCC3(CCC(=O)NC3=O)C2)c1 (stereo not shown) [Example 37, N-(3-(6,8-dioxo-2,7-diazaspiro[4.5]decane-2-carbonyl)phenyl)acetamide] | 6 nM
O=C1CCC2(CCN(C(=O)c3cccc4[nH]ncc34)C2)C(=O)N1 (stereo not shown) [Example 38, 2-(1H-indazole-4-carbonyl)-2,7-diazaspiro[4.5] decane-6,8-dione] | 84 nM
O=C1CCC2(CCN(C(=O)c3cccc4c3CCN4)C2)C(=O)N1 (stereo not shown) [Example 40, 2-(indoline-4-carbonyl)-2,7-diazaspiro[4.5] decane-6,8-dione] | 6 nM
O=C1CCC2(CCN(C(=O)c3ccc4c(c3)NCC4)C2)C(=O)N1 (stereo not shown) [Example 41, 2-(indoline-6-carbonyl)-2,7-diazaspiro[4.5] decane-6,8-dione] | 75 nM
CC(=O)N1CCc2ccc(C(=O)N3CCC4(CCC(=O)NC4=O)C3)cc21 (stereo not shown) [Example 42, 2-(1-acetylindoline-6-carbonyl)-2,7-diazaspiro[4.5] decane-6,8-dione] | 8 nM
O=C1CCC2(CCN(C(=O)c3coc4ccccc34)C2)C(=O)N1 (stereo not shown) [Example 44, 2-(benzofuran-3-carbonyl)-2,7-diazaspiro[4.5] decane-6,8-dione] | 9 nM
O=C1CCC2(CCN(C(=O)c3cnn4ccccc34)C2)C(=O)N1 (stereo not shown) [Example 45, 2-(pyrazolo[1,5-a]pyridine-3-carbonyl)-2,7-diazaspiro[4.5] decane-6,8-dione] | < 1 nM
O=C1CCC2(CCN(C(=O)c3ccc4ncoc4c3)C2)C(=O)N1 (stereo not shown) [Example 46, 2-(benzo[d]oxazole-6-carbonyl)-2,7-diazaspiro[4.5] decane-6,8-dione] | 10 nM
O=C1CCC2(CCN(C(=O)c3ccc4c(c3)CCN4)C2)C(=O)N1 (stereo not shown) [Example 47, 2-(indoline-5-carbonyl)-2,7-diazaspiro[4.5] decane-6,8-dione] | 4 nM
CC(=O)Nc1nc2cc(C(=O)N3CCC4(CCC(=O)NC4=O)C3)ccc2s1 (stereo not shown) [Example 50, N-(5-(6,8-dioxo-2,7-diazaspiro[4.5]decane-2-carbonyl)benzo[d]thiazol-2-yl)acetamide] | 45 nM
CC(=O)Nc1nc2ccc(C(=O)N3CCC4(CCC(=O)NC4=O)C3)cc2s1 (stereo not shown) [Example 51, N-(6-(6,8-dioxo-2,7-diazaspiro[4.5]decane-2-carbonyl)benzo[d]thiazol-2-yl)acetamide] | 94 nM
CC(=O)N1CCc2cc(C(=O)N3CCC4(CCC(=O)NC4=O)C3)ccc21 (stereo not shown) [Example 52, 2-(1-acetylindoline-5-carbonyl)-2,7-diazaspiro[4.5] decane-6,8-dione] | 41 nM
CC(C)(C)OC(=O)Nc1nc2cc(C(=O)N3CCC4(CCC(=O)NC4=O)C3)ccc2s1 (stereo not shown) [Example 53, tert-butyl (5-(6,8-dioxo-2,7-diazaspiro[4.5]decane-2-carbonyl)benzo[d]thiazol-2-yl)carbamate] | 6 nM
CC(C)(C)OC(=O)Nc1nc2ccc(C(=O)N3CCC4(CCC(=O)NC4=O)C3)cc2s1 (stereo not shown) [Example 54, tert-butyl (6-(6,8-dioxo-2,7-diazaspiro[4.5]decane-2-carbonyl)benzo[d]thiazol-2-yl)carbamate] | 4 nM
Nc1nc2ccc(C(=O)N3CCC4(CCC(=O)NC4=O)C3)cc2s1 (stereo not shown) [Example 55, 2-(2-aminobenzo [d]thiazole-6-carbonyl)-2,7-diazaspiro [4.5]decane-6,8-dione] | 26 nM
O=C1NC(=O)C2(CCN(C(=O)[C@H]3CCCc4ccccc43)CC2)N1 [Example 58, (S)-8-(1,2,3,4-tetrahydronaphthalene-1-carbonyl)-1,3,8-triazaspiro[4.5]decane-2,4-dione] | 4 nM
O=C1NC(=O)C2(CCN(C(=O)[C@@H]3CCCc4ccccc43)CC2)N1 [Example 59, (R)-8-(1,2,3,4-tetrahydronaphthalene-1-carbonyl)-1,3,8-triazaspiro[4.5]decane-2,4-dione] | 5 nM
O=C1NC(=O)C2(CCN(C(=O)c3ccccc3)CC2)N1 [Example 60, 8-benzoyl-1,3,8-triazaspiro[4.5]decane-2,4-dione] | 2 nM
O=C1NC(=O)C2(CCN(c3nc4ccccc4s3)CC2)N1 [Example 61, 8-(benzo[d]thiazol-2-yl)-1,3,8-triazaspiro[4.5]decane-2,4-dione] | 2 nM
O=C1NC(=O)C2(CCN(C(=O)c3coc4ccccc34)CC2)N1 [Example 66, 8-(benzofuran-3-carbonyl)-1,3,8-triazaspiro[4.5] decane-2,4-dione] | 1 nM
O=C1NC(=O)C2(CCN(C(=O)c3cnn4ccccc34)CC2)N1 [Example 67, 8-(pyrazolo[1,5-a]pyridine-3-carbonyl)-1,3,8-triazaspiro[4.5] decane-2,4-dione] | < 1 nM
